The numbers were not newly measured in US20230301939A1, “NOVEL FO[…]” (Neurocentrx Pharma Ltd., priority 2018, published 2023), which cites them from elsewhere.

Where two headings read alike, the source gives them in different places.

Broadly, the IC50 is the concentration needed to halve the response being measured.

Data set [1] deals with T1, a7 nicotinic acetylcholine receptor (Rattus norvegicus, UniProt Q05941).
T1 construct: expressed in transfected cells; host or cells: KXa7R1 cell line (HEK293)
T1 sequence (Q05941 23-502): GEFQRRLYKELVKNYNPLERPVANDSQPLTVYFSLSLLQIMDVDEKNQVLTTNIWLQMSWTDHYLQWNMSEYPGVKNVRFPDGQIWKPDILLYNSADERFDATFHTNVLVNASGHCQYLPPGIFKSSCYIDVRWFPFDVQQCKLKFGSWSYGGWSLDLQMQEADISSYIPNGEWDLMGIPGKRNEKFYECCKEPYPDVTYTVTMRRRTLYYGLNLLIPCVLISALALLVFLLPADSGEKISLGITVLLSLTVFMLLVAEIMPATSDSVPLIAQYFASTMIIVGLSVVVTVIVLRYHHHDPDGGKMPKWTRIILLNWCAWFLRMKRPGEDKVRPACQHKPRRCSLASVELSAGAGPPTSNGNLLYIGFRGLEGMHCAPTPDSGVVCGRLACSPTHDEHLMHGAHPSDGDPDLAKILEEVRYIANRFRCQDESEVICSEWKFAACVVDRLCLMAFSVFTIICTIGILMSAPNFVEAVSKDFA
Particulars: for Negative allosteric modulator activity in words: KXa7R1 cell line, ketamine at the same concentrations (<1 μM).

For data set [2] the following is noted: in vivo.
For data set [3], the system named is mice.

On to `CNC1(c2ccccc2Cl)CCCCC1=O` (centres unmarked) [Ketamine, ketamine], for which the “Negative allosteric modulator activity in words” value in data set [1] was “inactive”. For the same compound, the Bioavailability by setting is: (intramuscularly) 93%; (intranasally) 8-50%; (oral route) 17-20%; (rectally) 30%. Further, the “Time to peak plasma concentrations” value runs as follows: (intramuscularly) 5 to 15 min; (intravenously) “within a minute”; (orally) 30 min. For the setting “orally”, the “Duration of action in a clinical setting” value is 4 to 6 h.

Consider `NC1(c2ccccc2Cl)CCCCC1=O` (centres unmarked) [norketamine], for which the “Negative allosteric modulator activity in words” value in data set [1] is given as “nanomolar potencies”. Further, in data set [2], the “Potency as an anesthetic relative to ketamine” value was “one-third to one-fifth as potent”. Besides, the “Plasma levels relative to ketamine” value (following oral administration of ketamine) is on record as “three times higher”.

For the compound `N[C@@]1(c2ccccc2Cl)CCC[C@@H](O)C1=O` [(2R,6R)-HNK], the “Antidepressant(-like) effect” value in data set [3] is on record as “ketamine-type antidepressant-like effects”.

Take `CN[C@@]1(c2ccccc2Cl)CCCCC1=O` [arketamine]: the “Antidepressant(-like) effect” value in data set [3] is “greater and lasted longer than that of esketamine”.

As for `NC1(c2ccccc2Cl)CCCC(O)C1=O` (centres unmarked) [hydroxynorketamine], the “Negative allosteric modulator activity in words” value in data set [1] is recorded as “nanomolar potencies”.

For `NC1(c2ccccc2Cl)CCC=CC1=O` (centres unmarked) [dehydronorketamine], the IC50 in data set [1] (KXa7R1 cell line (HEK293 cells transfected with rat nicotinic acetylcholine receptor genes)) is 0.055 µM. Besides, the “Negative allosteric modulator activity in words” value in data set [1] was “nanomolar potencies”.
